This passage reports EC50 results from ChEMBL document CHEMBL1131274, “N6-(5,6-epoxynorbornyl)adenosine analogs as A1 adenosine agonists” (Bioorg Med Chem Lett, 1998).

Each structure is given as a SMILES string.

The experiment can be described thus: Potency to inhibit A1-adenosine receptor mediated cAMP accumulation in DDT1 MF-2 cells. As to conditions: Mesocricetus auratus. The class given is functional, cell-based. (In general: Changes in cAMP serve as a functional read-out for many G protein-coupled receptors.)

With `CCNC(=O)[C@H]1OC(n2cnc3c(NCC4CC5C=CC4C5)ncnc32)[C@H](O)[C@@H]1O` (some centres undefined), the EC50 – broadly, the concentration needed to bring the measured effect to its halfway point – came out at 0.035 µM.

Compound `CCNC(=O)[C@H]1OC(n2cnc3c(NC4CC5CC4C4OC54)[n+]([O-])cnc32)[C@H](O)[C@@H]1O` (some centres undefined) returned an EC50 of 0.217 µM.

For the compound `OC[C@H]1OC(n2cnc3c(NC4CC=CCC4)ncnc32)[C@H](O)[C@@H]1O` (some centres undefined), the EC50 came out at 0.0072 µM.

`CCNC(=O)[C@H]1OC(n2cnc3c(NCCN4CCOCC4)ncnc32)[C@H](O)[C@@H]1O` (some centres undefined): a half-maximal response (EC50) required 0.018 µM.

`CCNC(=O)[C@H]1OC(n2cnc3c(NC4CCC5OC5C4)ncnc32)[C@H](O)[C@@H]1O` (some centres undefined): the EC50 was determined as 0.0059 µM.

On to `CCNC(=O)[C@H]1OC(n2cnc3c(NC4CC=CCC4)ncnc32)[C@H](O)[C@@H]1O` (some centres undefined), for which the EC50 is 0.0011 µM.

`OC[C@H]1OC(n2cnc3c(NCC4CCCCO4)ncnc32)[C@H](O)[C@@H]1O` (some centres undefined) yielded an EC50 of 3.09 µM.

`OC[C@H]1O[C@@H](n2cnc3c(NC4CCCC4)ncnc32)[C@H](O)[C@@H]1O` [N6-CYCLOPENTYLADENOSINE] had an EC50 of 0.0028 µM.

In the case of `OC[C@H]1OC(n2cnc3c(NCC4CC5CC4C4OC54)ncnc32)[C@H](O)[C@@H]1O` (some centres undefined), the EC50 stood at 0.537 µM.

As to `OC[C@H]1OC(n2cnc3c(NCC4CC5C=CC4C5)ncnc32)[C@H](O)[C@@H]1O` (some centres undefined), the EC50 came out at 0.188 µM.

Compound `CCNC(=O)[C@H]1OC(n2cnc3c(NCc4ccco4)ncnc32)[C@H](O)[C@@H]1O` (some centres undefined) showed an EC50 of 0.262 µM.

For `OC[C@H]1OC(n2cnc3c(NC4CCC5OC5C4)ncnc32)[C@H](O)[C@@H]1O` (some centres undefined), a half-maximal response (EC50) required 0.037 µM.

On to `CCNC(=O)[C@H]1OC(n2cnc3c(NCC4CCCCO4)ncnc32)[C@H](O)[C@@H]1O` (some centres undefined), for which the EC50 turned out to be 0.641 µM.

Compound `CCNC(=O)[C@H]1OC(n2cnc3c(NCC4CC5CC4C4OC54)ncnc32)[C@H](O)[C@@H]1O` (some centres undefined) gave an EC50 of 0.159 µM.
